Test results as given in patent publication US12692278B2, “Synthesis methods and compositions of low intermediate and low dichelate intermediate contrast agents” (priority 2021, dated 2026).

How the values were obtained:
[1] = pH controlled synthesis, free Gd versus synthesis time; type: physicochemical
Procedure: Here, Example 1A is modified by the addition of gadolinim oxide in its entirety at first and immediately after the introduction of the DOTA, and this procedure is used to produce batch A of Gd-DOTA. Batch B is produced using the following modified procedure.
• 1. Heat reactor to 95° C. • 2. Charge water with all of gadolinium oxide • 3. Stir (stir unless otherwise indicated, nominal rate 300 rpm) until the solution is clear • 4. Add sufficient DOTA to obtain a pH of 4 • 5. When pH is >5 charge sufficient DOTA to reach pH of 4 • 6. Stir until uniformly distributed in the water, and clear • 7. If pH<4, then go to step 9 • 8. Go to step 4 • 9. Divide remaining portion of DOTA into 5 parts • 10. Add 1 part of remaining DOTA • 11. Stir until uniformly distributed in the water, and clear • 12. If DOTA remains to be added go to step 10 • 13. Continue to cook for a total of 12 hours Results

[2] = Feasibility of excess DTPA, free Gd3+ by xylenol orange; type: physicochemical; conditions: new 12 hour sample before DTPA
Procedure: The metastable intermediate concentration is determined by Example 3, and associated methods described in the present application. A Gd-DOTA synthesis containing metastable intermediates is heated to 95° C. in the presence of a stoichiometric amount of DTPA sufficient to consume all the metastable intermediates. The presence of metastable intermediates can be measured as a function of time. The reaction is continued until a desired metastable intermediate content is obtained. Depending on the amount of free DOTA thus liberated, the free DOTA can be reacted with a positively charged resin, as is known in the art. Alternatively, the free DOTA may serve as a buffer against free Gd3+ formation, as is permitted in some drug formulations. Ten samples were prepared by adding stoichiometric amounts of DTPA to counter the excess Gd3+ and stored at room temperature for 24 hours. Samples were tested using the improved spectrometric xylenol orange method.

[3] = Transmetallation with ZnCl solution; type: physicochemical; conditions: free Gd; 10% by weight ZnCl solution; unit not given
Description: 10% by weight ZnCl solution was used to support the serum results, arguing that Zn substitution of Gd in the chelate quantifies the stability of the Gd-DOTA in much the same way that metals in serum block Gd3+ recombination with the chelate, but with more precision, since the contents of bovine serum is variable among mammals.

[4] = Free Gd3+ after exposure to bovine serum; type: physicochemical
Procedure: To show these metastable intermediates readily evolve into free Gd3+, Gd-DOTA was placed in a solution of bovine serum and the amount of Gd3+ was measured.
Bovine blood was obtained at a local slaughterhouse, citrated, centrifuged and serum was obtained and frozen. In tests, serum was slowly heated to body temperature and 1% Gd-DOTA by weight was added to serum and placed on rocker for 30 minutes. Ten samples were tested for each test article.

[5] = Feasibility of cation exchange (sodium polystyrene sulfonate), free Gd3+ by xylenol orange; type: physicochemical; conditions: before sodium polystyrene sulfonate treatment
Procedure: Feasibility of cation exchange as a method of making Gd-DOTA with low metastable intermediates
Using sodium polystyrene sulfonate, rather than the polymer described above.
Ten samples were stored at room temperature with a stoichiometric amount of sodium polystyrene sulfonate.
Samples were tested using the improved spectrometric xylenol orange method.

[6] = Free Gd3+ baseline / in vial, xylenol orange; type: physicochemical
Description: Additionally or alternately, an improved version of the xylenol orange titration of free Gd3+ in the USP can be used as both an in-process check and a final product check. To obtain a limit of detection adequate for the product produced in the above claims, UV spectroscopy must be used in conjunction with the titration to measure the xylenol orange/free Gd reaction. Furthermore, an indirect measure of metastable intermediates is obtained when the titration reaction is allowed to proceed past the initial reaction of xylenol orange and free Gd. This is because xylenol orange will pull Gd from the metastable intermediates over time. […] Free Gadolinium was determined by using the spectrometric xylenol orange technique described in previous studies.

[7] = Feasibility of acid precipitation, free Gd3+ by xylenol orange; type: physicochemical; conditions: 12 hour sample, 1 hr 0.1 M HCl, buffer to pH 7.0, filtration
Procedure: The feasibility of acid precipitation as a method for making Gd-DOTA with low metastable intermediate forms was tested.
(§1) Ten samples were tested using the improved spectrometric xylenol orange method after 1 hr exposure to acid (0.1 M HCl), buffer to pH 7.0, and filtration of the precipitate. • 12 hour Example 1A sample was used at 803 ppm Gd3+ • After acid precipitation (N=5) • 8.6+/−9.2 ppm Gd3+ range: 15.9 ppm Gd3+ to undetectable
as §1, with “1B” for “1A”, “undetectable.” for “undetectable”

[8] = type: physicochemical
Description: Ironically, Gd-DTPA has a more favorable binding constant than does Gd-DOTA at pH 7.4. For less basic ligands like Gd-DTPA-BMA and DOTA-(gly)4, the experimental values are closer to the theoretical thermodynamic stability constant because there is less competition from available protons at pH 7.4.

[9] = Free Gd(III) in incompletely synthesized complex solution; type: physicochemical; conditions: mean of five reactions
Procedure: Then, the content of free DOTA, free gadolinium, and complex was determined, and the final content of excess free DOTA was set. Five reactions were run, using 4.05 g of DOTA, 15 ml water, and 1.78 g of gadolinium oxide. Ten spectroscopic measurements using Xylenol orange were conducted. […] This is the molar amount of xylenol orange added to each reaction product. One can use: Understanding that the denominator is a constant and Abs^573 is the number of free Gd(III) ions that react with the xylenol orange. This is a conservative measure of ppm, given by the ratio of free gadolinium and total gadolinium in the reactant (×10^6). Another possible definition, which would give a higher number (less conservative) is simply comparing free gadolinium to complexed gadolinium, which would mean ppm of free gadolinium for every million complexed gadolinium.

Molecule: CNC[C@H](O)[C@@H](O)[C@H](O)[C@H](O)CO.O=C([O-])CN1CCN(CC(=O)[O-])CCN(CC(=O)O)CCN(CC(=O)[O-])CC1.[Gd+3] [Example 1, Gd-DOTA]
- Free Gd ([1]; synthesis time 4 hrs): 17,467 +/− 9.4 ppm
- Free Gd ([1]; synthesis time 8 hrs): 3,448 +/− 8.9 ppm
- Free Gd ([1]; synthesis time 12 hrs): 803 +/− 8.1 ppm
- Gd3+ of starting sample [2]: 2146 ppm
- Transmetallation [3]: 88 +/− 16.8
- Free Gd+ after serum ([4]; 1% Gd-DOTA by weight in bovine serum, body temperature, rocker 30 minutes, ppm adjusted to pre-diluted level): 88 +/− 16.8 ppm
- In Serum ([4]; free Gd, unit not given): 2.9 +/− 0.8
- Gd3+ of starting sample [5]: 2146 ppm
- Baseline Free Gd3+ ([6]; before serum, ppm adjusted to pre-diluted level at drug concentration): 0.77 +/− 0.92 ppm
- In Vial ([6]; free Gd, no unit printed in this table (ppm in the 1st table)): 0.77 +/− 0.92

Molecule: O=C([O-])CN1CCN(CC(=O)[O-])CCN(CC(=O)O)CCN(CC(=O)[O-])CC1.[Gd+3] [Example 2A, Gd-DOTA]
- Gd3+ after acid precipitation, range (upper value, down to undetectable) [7]: ≤ 15.9 ppm
- Gd3+ after acid precipitation ([7]; N=5): 8.6+/−9.2 ppm

Molecule: CNC[C@H](O)[C@@H](O)[C@H](O)[C@H](O)CO.O=C([O-])CN1CCN(CC(=O)[O-])CCN(CC(=O)O)CCN(CC(=O)[O-])CC1.[Gd+3] [Gd-DOTA, gadoterate meglumine, reference compound]
- stability lower at pH 7.4 [8]: 7 orders of magnitude
- in-bottle measured free gadolinium ([6]; commercial product stored in bottle): 10^13 Gd3+ ions in 100 ml of GCA product

Molecule: Gd-DOTA [Example 4]
- Free Gd(III), MEAN [9]: 30,989 +/− 9410 ppm
